Assay results as given in ChEMBL document CHEMBL1201862, “PubChem BioAssay data set” (2004).
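Cultured in 96-well plates, cells were exposed to test compound for 48 hours across five concentrations. The concentration for 50% growth inhibition is given as GI50.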 Active and inactive are the calls of the source. Cut-off read from the data, not from the text of the source: active = GI50 up to about 1.1 µM and inactive = higher.

Key:
Assay in all cases: NCI-60 cell line screen, 48 h
BT-549 = tested on: BT-549
HOP-18 = tested on: HOP-18
DMS-114 = tested on: DMS-114
DLD-1 = tested on: DLD-1
KM-20L2 = tested on: KM-20L2
RXF 631 = tested on: RXF 631
SNB-78 = tested on: SNB-78
LXFL 529 = tested on: LXFL 529
XF498 = tested on: XF498

c1ccc2sc(SCSc3nc4ccccc4s3)nc2c1
GI50 (BT-549): > 100 µM (inactive)

COc1ccc2nc(NCN3C(=O)c4ccccc4C3=O)sc2c1
GI50 (BT-549): > 100 µM (inactive)

Oc1c2c(nc3cc4c(cc13)OCO4)-c1ccccc1CCC2
GI50 (BT-549): > 50 µM (inactive)

CCOC(=O)c1ccc(-c2cc(C)no2)[nH]1
GI50 (BT-549): > 100 µM (inactive)

O=c1[nH]c(=O)n([C@@H]2C[C@H](CO)[C@H](O)C2)cc1/C=C/Br
GI50 (HOP-18): > 100 µM (inactive)
GI50 (DMS-114): > 100 µM (inactive)
GI50 (DLD-1): > 100 µM (inactive)
GI50 (KM-20L2): > 100 µM (inactive)
GI50 (RXF 631): > 100 µM (inactive)
GI50 (SNB-78): > 100 µM (inactive)
GI50 (LXFL 529): > 100 µM (inactive)

O=C(N/N=C/c1ccc([N+](=O)[O-])cc1)Nc1ccc(Br)cc1
GI50 (BT-549): > 100 µM (inactive)

O=C1NC(=O)c2ccc([N+](=O)[O-])c3cccc1c23
GI50 (BT-549): 19.2 µM (inactive)

CCN(CC)c1ccc2cc(-c3nnc(-c4ccccc4)[nH]3)c(=O)oc2c1
GI50 (BT-549): 25.2 µM (inactive)

CN(C)CC(C)(C)CN1c2ccccc2Sc2ccccc21
GI50 (BT-549): 14 µM (inactive)

CC(=O)OCC1OC(N2C(=O)NC(=O)C3C=C4CCCCC4=CC32)CC1OC(C)=O (stereo not given)
GI50 (BT-549): > 100 µM (inactive)

NC1=NN(c2ccccc2)C(=O)C1C(=O)CCC(=O)Nc1cccc(Cl)c1 (stereo not given)
GI50 (HOP-18): > 100 µM (inactive)
GI50 (DMS-114): > 100 µM (inactive)
GI50 (DLD-1): > 100 µM (inactive)
GI50 (XF498): > 100 µM (inactive)
GI50 (KM-20L2): > 100 µM (inactive)
GI50 (SNB-78): > 100 µM (inactive)
GI50 (LXFL 529): > 100 µM (inactive)

COC(=O)C1Cc2cccc(C)c2C1 (stereo not given)
GI50 (BT-549): > 100 µM (inactive)

CCOc1ccc(/C(Cl)=C(\C=O)c2ccc(OC)c(OC)c2)cc1OCC
GI50 (HOP-18): > 100 µM (inactive)
GI50 (DMS-114): 11 µM (inactive)
GI50 (DLD-1): 68.7 µM (inactive)
GI50 (XF498): 53.2 µM (inactive)
GI50 (KM-20L2): > 100 µM (inactive)
GI50 (SNB-78): 36.8 µM (inactive)
GI50 (LXFL 529): 30.5 µM (inactive)

COc1cc(C2C(Cl)C(=O)N2NC(=O)Cc2ccccc2)ccc1O (stereo not given)
GI50 (HOP-18): 40.3 µM (inactive)
GI50 (DMS-114): 50.2 µM (inactive)
GI50 (DLD-1): > 100 µM (inactive)
GI50 (XF498): > 100 µM (inactive)
GI50 (KM-20L2): > 100 µM (inactive)
GI50 (SNB-78): > 100 µM (inactive)
GI50 (LXFL 529): 70.6 µM (inactive)

CCCC(=O)OCC1OC(n2cc(F)c(=O)[nH]c2=O)CC1O (stereo not given)
GI50 (BT-549): 0.929 µM (active)

N#CC(c1ccccn1)c1nc2ccccc2[nH]1 (stereo not given)
GI50 (DMS-114): 51.5 µM (inactive)
GI50 (DLD-1): 98.9 µM (inactive)
GI50 (XF498): 64.4 µM (inactive)
GI50 (SNB-78): > 100 µM (inactive)
GI50 (LXFL 529): > 100 µM (inactive)

O=c1cc(-c2ccccc2)nc(/C=C(\O)c2ccncc2)n1-c1ccccc1
GI50 (HOP-18): > 100 µM (inactive)
GI50 (DMS-114): > 100 µM (inactive)
GI50 (DLD-1): > 100 µM (inactive)
GI50 (KM-20L2): > 100 µM (inactive)
GI50 (SNB-78): > 100 µM (inactive)
GI50 (LXFL 529): > 100 µM (inactive)

CCOc1ccc2ccc3cccnc3c2n1
GI50 (BT-549): > 100 µM (inactive)

COc1cccc(OC)c1/C=C1\OC(=O)c2cccc(OC)c21
GI50 (BT-549): 5.22 µM (inactive)

N#CC1=C(N)OC2=C(CSc3ccccc32)C1c1ccc(Br)cc1 (stereo not given)
GI50 (BT-549): 10.7 µM (inactive)

COc1ccc(C(C2=C(O)CC(C)OC2=O)C2=C(O)CC(C)OC2=O)cc1 (stereo not given)
GI50 (DMS-114): > 100 µM (inactive)
GI50 (DLD-1): > 100 µM (inactive)
GI50 (KM-20L2): > 100 µM (inactive)
GI50 (RXF 631): > 100 µM (inactive)
GI50 (SNB-78): > 100 µM (inactive)
GI50 (LXFL 529): > 100 µM (inactive)

Cc1ccc(C(=O)/C=C2\Nc3ccccc3N=C2NC23CC4CC(CC(C4)C2)C3)cc1
GI50 (BT-549): > 10 µM (inactive)

OCC(O)C(OC1OC(CO)C(O)C(O)C1O)c1nn(-c2ccc(F)cc2)c2nc3cc(Cl)c(Cl)cc3cc12 (stereo not given)
GI50 (DMS-114): > 100 µM (inactive)
GI50 (DLD-1): > 100 µM (inactive)
GI50 (XF498): > 100 µM (inactive)
GI50 (KM-20L2): > 100 µM (inactive)
GI50 (SNB-78): > 100 µM (inactive)
GI50 (LXFL 529): > 100 µM (inactive)

CC1=C(C(=O)Nc2cccc3c2C(=O)NC3=O)CC(C(=O)Nc2cccc3c2C(=O)NC3=O)=C(C)N1
GI50 (BT-549): > 100 µM (inactive)

COc1ccc2[nH]c3c4c(c5cc(C(C)(C)C)ccc5c3c2c1)C(=O)N(c1ccccc1)C4=O
GI50 (HOP-18): 34.8 µM (inactive)
GI50 (DMS-114): > 100 µM (inactive)
GI50 (DLD-1): 13.4 µM (inactive)
GI50 (KM-20L2): > 100 µM (inactive)
GI50 (SNB-78): > 100 µM (inactive)
GI50 (LXFL 529): > 100 µM (inactive)

CCOC(=O)N/N=C(\CC)NO
GI50 (BT-549): > 100 µM (inactive)

O=C(/N=C(\Nc1ccccc1)SCCS/C(=N/C(=O)c1cccs1)Nc1ccccc1)c1cccs1
GI50 (DMS-114): 30.2 µM (inactive)
GI50 (DLD-1): 40 µM (inactive)
GI50 (XF498): 34.4 µM (inactive)
GI50 (KM-20L2): 41.9 µM (inactive)
GI50 (LXFL 529): 46.9 µM (inactive)

CC(C)NC(=O)OCCN=c1c2ccccc2ccc2ccccc12
GI50 (BT-549): 49.4 µM (inactive)

CCCCC(O)(c1ccccc1)C(O)(c1ccccc1)c1c(F)c(F)c(F)c(F)c1F (stereo not given)
GI50 (BT-549): 33.3 µM (inactive)

c1ccc2c(c1)nc1ccccn12
GI50 (BT-549): > 100 µM (inactive)

CN(C)CCCCCNc1c2ccccc2nc2cccc([N+](=O)[O-])c12
GI50 (HOP-18): 0.027 µM (active)
GI50 (DMS-114): 0.00242 µM (active)
GI50 (DLD-1): 0.00342 µM (active)
GI50 (XF498): 0.00277 µM (active)
GI50 (KM-20L2): 0.0036 µM (active)
GI50 (BT-549): 0.000946 µM (active)
GI50 (SNB-78): 0.00565 µM (active)
GI50 (LXFL 529): 0.0115 µM (active)
